Reference: paper PMC8044163, “Vitamin D and lumisterol derivatives can act on liver X receptors (LXRs)” (Scientific Reports, 2021)

target: T1, LBD of LXRβ (Homo sapiens, UniProt P55055); experiment: LanthaScreen TR-FRET LXRβ coactivator assay (LXR binding assay); type: biochemical; conditions: agonist; average values; read-out: LXRβ EC50
T1 construct: purchased Thermo Fisher Scientific
T1 sequence (P55055 222-460 limits assumed): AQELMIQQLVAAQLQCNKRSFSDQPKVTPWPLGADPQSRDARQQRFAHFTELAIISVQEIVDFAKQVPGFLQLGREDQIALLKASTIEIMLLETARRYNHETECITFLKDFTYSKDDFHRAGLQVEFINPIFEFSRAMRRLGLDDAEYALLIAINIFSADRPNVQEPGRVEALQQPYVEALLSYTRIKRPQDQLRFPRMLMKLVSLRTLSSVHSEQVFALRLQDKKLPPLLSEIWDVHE
Description: Binding assays of graded concentrations of vitamin D3 or lumisterol hydroxyderivatives to LXRα/β were performed using the LanthaScreen TR-FRET LXRα/β Coactivator kit (Thermo Fisher Scientific, Inc., Waltham, MA) following the manufacture’s protocol. Briefly, after addition of LXRα/β-LBD to the derivatives, a mixture of peptide (Fluorescein-TRAP220/DRIP-2 for LXRα or Fluorescein-D22 for LXRβ) and antibody (Tb-anti-GST) was added to the reaction followed by incubation in room temperature for 2 h. TR-FRET ratio was calculated by dividing the emission at 520 nm by the emission at 495 nm using Synergy neo2 (BioTek, Winooski, VT).

Compound	EC50
C=C1CC[C@H](O)C/C1=C/C=C1\CCC[C@@]2(C)[C@H]1CC[C@@H]2[C@@](C)(O)CCCC(C)C [20(OH)D3]	2.6 µM
C=C1CCC(O)CC1=CC=C1CCCC2(C)C1CCC2C(C)(O)CC(O)CC(C)C (stereo not shown) [20,23(OH)2D3]	26 µM
C=C1/C(=C\C=C2/CCC[C@]3(C)[C@@H]([C@H](C)CCCC(C)(C)O)CC[C@@H]23)C[C@@H](O)C[C@@H]1O [1,25(OH)2D3, reference compound]	14 µM
C=C1C(=CC=C2CCCC3(C)C2CCC3C(C)(O)CC(O)CC(C)C)CC(O)CC1O (stereo not shown) [1,20,23(OH)3D3]	1.6 µM
